From patent US20130252816A1, “HERBICIDAL COMPOSITION AND USE THEREOF” (Syngenta Crop Protection LLC, priority 2010, published 2013)

How the values were obtained:
[1] = tested on: Dandelion; assay: Example 3: branched chain alcohol ethoxylates in admixture with glyphosate, visual % damage, 600 l/ha; type: in vivo; settings: adjuvant where present 5% w/v
Experimental: (§1) The effects of different branched chain alcohol ethoxylates in admixture with glyphosate on both Dandelions and a mixture of grasses were investigated.
(§2) Dandelion samples and a mixture of grasses obtained from a meadow environment were planted into square 20 cm pots and kept and grown on in glasshouse for at least 2 weeks (18 to 20° C., 60% relative humidity).
(§3) Application of branched chain alcohol ethoxylate was carried out using a tracksprayer, spraying at a rate of 600 l/ha.
(§4) Visual assessment of the estimated percentage damage to the plant was carried out 1, 6, 13, and 20 days from application.
(§5) Damage was assessed as wilting, desiccation or any other kind of visual injury in comparison to the untreated control (water only).

[2] = tested on: broadleaf weed and grass species; assay: Example 2: overall statement on alcohol ethoxylates without glyphosate; type: in vivo; settings: absence of glyphosate
Source text: (§6) The effect of different types of alcohol ethoxylate (branched—Genapol X-series, and unbranched—Genapol O-series, differing degrees of ethoxylation, see Table 3 below for more details), on unwanted vegetation (broadleaf weed and grass species), in the absence of glyphosate, was investigated and compared to untreated (water only) control weeds.
(§7) Troughs (measuring 16 cm by 13 cm by 5 cm) were filled with local field soil. Seeds of Veronica persica, Stellaria media, Trifolium repens and Poa annua were sown 24 days before application of test samples. Plants were grown in the glasshouse at 18 to 20° C. and 60% relative humidity. Application of alcohol ethoxylate test samples was carried out using a tracksprayer, spraying at a rate of 300 l/ha. Plants were kept in glasshouse and visual assessment of the estimated percentage damage to the plant was carried out 1, 7, and 14 days from application.
as §5

[3] = tested on: broadleaf weeds and grasses; assay: Example 1: overall statement on adjuvants alone; type: in vivo; settings: 1 and 6 days after treatment, adjuvant alone
Experimental: (§8) The effect of different adjuvants (see Table 1 below) on the growth of broadleaf weed and grass species was investigated and compared to untreated (water only) control weeds.
(§9) Plates, each with 48 pots measuring 2.7 cm diameter and 5 cm deep, were filled with TKS1 growing media (Floragard, Germany). Seeds of Taraxacum officinale, Stellaria media or Poa annua were sown on the surface (10 to 20 per pot). Plants were grown in glasshouse at a temperature of 18 to 20° C. and at 60% relative humidity.
(§10) Plants were treated 15 (Stellaria, Poa) and 34 (Taraxacum) days after sowing with 60 μl of a 1.25, 2.5, 5 and 10% (w/v) solution of adjuvant using a hand airbrush.
(§11) Visual assessment of the percentage damage to the plant was carried out 1 day and 6 days from application.
as §5

[4] = tested on: Grass mix; assay: Example 3: branched chain alcohol ethoxylates in admixture with glyphosate, visual % damage, 600 l/ha; type: in vivo, mixture of grasses; settings: adjuvant where present 5% w/v
Experimental: as §1, §2, §3, §4, §5

[5] = tested on: broadleaf weeds and grasses; assay: Example 4: overall statement, broadleaf weeds and grasses; type: in vivo; settings: 2.5% w/v in admixture with glyphosate (Weedbuster)
Source text: The effect on broadleaf weeds and grasses of different concentrations of Genapol™ X060 (iso-tridecyl alcohol polyglycol ether with 6 moles of ethoxylation) in admixture with glyphosate was investigated.
Troughs (measuring 55 cm by 9 cm by 8.5 cm) were filled with local field soil. Seeds of Taraxacum officinale, Urtica dioica, Trifolium repens and Poa annua were sown 41 days before application of test samples, and seeds of Stellaria media, Veronica persica, Agropyron repens and Lolium multiflorum were sown 24 days before application of test samples. Plants were grown in the glasshouse at 18 to 20° C. and 60% relative humidity. One week before application of test samples, troughs were placed outside (but covered).
Application of test samples was carried out using a tracksprayer, spraying at a rate of 300 l/ha. Treated plants were kept outside and visual assessment of the percentage damage to the plants was carried out at 1, 7, 14, and 21 days after application.
as §5

[6] = tested on: Taraxacum officinale; assay: Example 1: adjuvants alone, visual % damage, pots in glasshouse; type: in vivo
Experimental: as §8, §9, §10, §11, §5

[7] = tested on: Stellaria media; assay: as above; type: in vivo
Experimental: as §8, §9, §10, §11, §5

[8] = tested on: Poa annua; assay: as above; type: in vivo
Experimental: as §8, §9, §10, §11, §5

[9] = tested on: Veronica persica; assay: Example 2: alcohol ethoxylate adjuvants without glyphosate, visual % damage, tracksprayer 300 l/ha; type: in vivo
Source text: as §6, §7, §5

[10] = tested on: Trifolium repens; assay: as above; type: in vivo
Source text: as §6, §7, §5

[11] = tested on: Stellaria media; assay: as above; type: in vivo
Source text: as §6, §7, §5

[12] = tested on: Poa annua; assay: as above; type: in vivo
Source text: as §6, §7, §5

[13] = tested on: Dandelions and a mixture of grasses; assay: Example 3: overall statement, Dandelions and mixture of grasses; type: in vivo; settings: absence of glyphosate, 5% w/v
Experimental: as §1, §2, §3, §4, §5

Iso-tridecyl alcohol polyglycol ether with 6 moles of ethoxylation [GenapolX060]
% Damage 1 daa Dandelion [1]: 40%
% Damage 6 daa Dandelion [1]: 50%
% Damage 13 daa Dandelion [1]: 30%
% Damage 20 daa Dandelion [1]: 20%
course of damage over time (recovery) [2]: the level of damage decreases from day 14 onwards
visual symptoms of phytotoxicity [3]: comparatively high level of visual symptoms of phytoxicity
% Damage 1 daa Grass mix [4]: 20%
% Damage 6 daa Grass mix [4]: 50%
% Damage 13 daa Grass mix [4]: 40%
% Damage 20 daa Grass mix [4]: 40%
rapid symptomology versus Roundup and Weedbuster [5]: more rapid symptomology against all weeds in comparison to Roundup
avg % damage 1 DAA Taraxacum officinale ([6]; adjuvant 1.25% w/v): 5%
avg % damage 6 DAA Taraxacum officinale ([6]; adjuvant 1.25% w/v): 20%
avg % damage 1 DAA Taraxacum officinale ([6]; adjuvant 2.5% w/v): 10%
avg % damage 6 DAA Taraxacum officinale ([6]; adjuvant 2.5% w/v): 20%
avg % damage 1 DAA Taraxacum officinale ([6]; adjuvant 5% w/v): 30%
avg % damage 6 DAA Taraxacum officinale ([6]; adjuvant 5% w/v): 40%
avg % damage 1 DAA Taraxacum officinale ([6]; adjuvant 10% w/v): 45%
avg % damage 6 DAA Taraxacum officinale ([6]; adjuvant 10% w/v): 35%
avg % damage 1 DAA Stellaria media ([7]; adjuvant 1.25% w/v): 25%
avg % damage 6 DAA Stellaria media ([7]; adjuvant 1.25% w/v): 35%
avg % damage 1 DAA Stellaria media ([7]; adjuvant 2.5% w/v): 30%
avg % damage 6 DAA Stellaria media ([7]; adjuvant 2.5% w/v): 40%
avg % damage 1 DAA Stellaria media ([7]; adjuvant 5% w/v): 35%
avg % damage 6 DAA Stellaria media ([7]; adjuvant 5% w/v): 65%
avg % damage 1 DAA Stellaria media ([7]; adjuvant 10% w/v): 60%
avg % damage 6 DAA Stellaria media ([7]; adjuvant 10% w/v): 85%
avg % damage 1 DAA Poa annua ([8]; adjuvant 1.25% w/v): 45%
avg % damage 6 DAA Poa annua ([8]; adjuvant 1.25% w/v): 50%
avg % damage 1 DAA Poa annua ([8]; adjuvant 2.5% w/v): 55%
avg % damage 6 DAA Poa annua ([8]; adjuvant 2.5% w/v): 70%
avg % damage 1 DAA Poa annua ([8]; adjuvant 5% w/v): 75%
avg % damage 6 DAA Poa annua ([8]; adjuvant 5% w/v): 80%
avg % damage 1 DAA Poa annua ([8]; adjuvant 10% w/v): 70%
avg % damage 6 DAA Poa annua ([8]; adjuvant 10% w/v): 80%
mean % damage 1 daa Veronica persica ([9]; adjuvant 1% w/v): 10%
mean % damage 7 daa Veronica persica ([9]; adjuvant 1% w/v): 10%
mean % damage 14 daa Veronica persica ([9]; adjuvant 1% w/v): 5%
mean % damage 1 daa Veronica persica ([9]; adjuvant 1.5% w/v): 20%
mean % damage 7 daa Veronica persica ([9]; adjuvant 1.5% w/v): 20%
mean % damage 14 daa Veronica persica ([9]; adjuvant 1.5% w/v): 10%
mean % damage 1 daa Veronica persica ([9]; adjuvant 2% w/v): 70%
mean % damage 7 daa Veronica persica ([9]; adjuvant 2% w/v): 70%
mean % damage 14 daa Veronica persica ([9]; adjuvant 2% w/v): 50%
mean % damage 1 daa Veronica persica ([9]; adjuvant 2.5% w/v): 60%
mean % damage 7 daa Veronica persica ([9]; adjuvant 2.5% w/v): 40%
mean % damage 14 daa Veronica persica ([9]; adjuvant 2.5% w/v): 40%
mean % damage 1 daa Trifolium repens ([10]; adjuvant 1% w/v): 40%
mean % damage 7 daa Trifolium repens ([10]; adjuvant 1% w/v): 40%
mean % damage 14 daa Trifolium repens ([10]; adjuvant 1% w/v): 0%
mean % damage 1 daa Trifolium repens ([10]; adjuvant 1.5% w/v): 60%
mean % damage 7 daa Trifolium repens ([10]; adjuvant 1.5% w/v): 50%
mean % damage 14 daa Trifolium repens ([10]; adjuvant 1.5% w/v): 0%
mean % damage 1 daa Trifolium repens ([10]; adjuvant 2% w/v): 70%
mean % damage 7 daa Trifolium repens ([10]; adjuvant 2% w/v): 60%
mean % damage 14 daa Trifolium repens ([10]; adjuvant 2% w/v): 0%
mean % damage 1 daa Trifolium repens ([10]; adjuvant 2.5% w/v): 70%
mean % damage 7 daa Trifolium repens ([10]; adjuvant 2.5% w/v): 60%
mean % damage 14 daa Trifolium repens ([10]; adjuvant 2.5% w/v): 5%
mean % damage 1 daa Stellaria media ([11]; adjuvant 1% w/v): 5%
mean % damage 7 daa Stellaria media ([11]; adjuvant 1% w/v): 5%
mean % damage 14 daa Stellaria media ([11]; adjuvant 1% w/v): 0%
mean % damage 1 daa Stellaria media ([11]; adjuvant 1.5% w/v): 10%
mean % damage 7 daa Stellaria media ([11]; adjuvant 1.5% w/v): 10%
mean % damage 14 daa Stellaria media ([11]; adjuvant 1.5% w/v): 0%
mean % damage 1 daa Stellaria media ([11]; adjuvant 2% w/v): 10%
mean % damage 7 daa Stellaria media ([11]; adjuvant 2% w/v): 30%
mean % damage 14 daa Stellaria media ([11]; adjuvant 2% w/v): 10%
mean % damage 1 daa Stellaria media ([11]; adjuvant 2.5% w/v): 20%
mean % damage 7 daa Stellaria media ([11]; adjuvant 2.5% w/v): 40%
mean % damage 14 daa Stellaria media ([11]; adjuvant 2.5% w/v): 20%
mean % damage 1 daa Poa annua ([12]; adjuvant 1% w/v): 20%
mean % damage 7 daa Poa annua ([12]; adjuvant 1% w/v): 30%
mean % damage 14 daa Poa annua ([12]; adjuvant 1% w/v): 10%
mean % damage 1 daa Poa annua ([12]; adjuvant 1.5% w/v): 20%
mean % damage 7 daa Poa annua ([12]; adjuvant 1.5% w/v): 40%
mean % damage 14 daa Poa annua ([12]; adjuvant 1.5% w/v): 10%
mean % damage 1 daa Poa annua ([12]; adjuvant 2% w/v): 40%
mean % damage 7 daa Poa annua ([12]; adjuvant 2% w/v): 50%
mean % damage 14 daa Poa annua ([12]; adjuvant 2% w/v): 15%
mean % damage 1 daa Poa annua ([12]; adjuvant 2.5% w/v): 40%
mean % damage 7 daa Poa annua ([12]; adjuvant 2.5% w/v): 50%
mean % damage 14 daa Poa annua ([12]; adjuvant 2.5% w/v): 0%
course of damage over time (recovery) [13]: the level of damage decreases from day 13 onwards
